From PMC10281575, “PfCRT mutations conferring piperaquine resistance in falciparum malaria shape the kinetics of quinoline drug binding and transport” (PLOS Pathogens, 2023)
Numbering of substitutions follows the chain as printed. Several values for one entry are separate records, joined by “and”; a condition that tells them apart may be missing. Identical values can stand only once.

Experiments:
PfCRT^Dd2_M343L = biological target: T1, PfCRT^Dd2_M343L (Plasmodium falciparum, UniProt Q8IBZ9, A220S/I356T/K76T/M343L/M74I/N326S/N75E/Q271E/R371I); test: Verapamil inhibition of PfCRT-mediated CQ and PPQ transport in oocytes, PfCRT^Dd2_M343L; assay type: cell-based; settings: individual replicates (S3 Fig)
T1 construct: expressed in transfected cells; host or cells: Xenopus laevis oocytes injected with in vitro transcribed RNA (pSP64T)
T1 sequence (Q8IBZ9 1-424 M74I/N75E/K76T/A220S/Q271E/N326S/M343L/I356T/R371I): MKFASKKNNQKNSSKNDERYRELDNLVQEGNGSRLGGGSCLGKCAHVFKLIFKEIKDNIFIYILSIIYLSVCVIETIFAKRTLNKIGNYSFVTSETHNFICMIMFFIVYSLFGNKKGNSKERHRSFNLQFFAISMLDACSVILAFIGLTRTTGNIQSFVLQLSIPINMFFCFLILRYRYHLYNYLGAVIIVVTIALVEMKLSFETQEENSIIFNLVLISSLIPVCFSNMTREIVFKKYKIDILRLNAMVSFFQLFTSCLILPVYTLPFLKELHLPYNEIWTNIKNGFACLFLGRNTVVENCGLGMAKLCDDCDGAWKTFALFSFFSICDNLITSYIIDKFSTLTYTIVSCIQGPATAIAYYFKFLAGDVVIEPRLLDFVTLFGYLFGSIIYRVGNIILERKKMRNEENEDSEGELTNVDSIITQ
Experimental: In all cases, the PfCRT-mediated CQ and PPQ transport was inhibited in the presence of 100 μM verapamil (S3 Fig).
Drug transport assays were performed as previously described. Briefly, measurements of radiolabeled drug uptake were made over 1 h, unless otherwise specified. […] Where specified, one or more unlabeled drugs were also present at the indicated concentrations. The direction of drug transport in the assays is from the extracellular medium (pH 6) into the oocyte cytosol (pH 7.2), which corresponds to the efflux of CQ or PPQ from the acidic digestive vacuole (pH 5.2) into the parasite cytosol (pH 7.2). The uptake assays were terminated by removing the oocytes from the reaction medium and washing them three times with 2 mL of ice-cold ND96 buffer. Each oocyte was transferred to a separate scintillation vial and lysed by the addition of 200 μL of a 5% SDS solution. The radioactivity in the sample was measured using a liquid scintillation analyser Tri-Carb 4910 TR (PerkinElmer). Water-injected oocytes were analyzed in parallel as a negative control. The buffer from each condition was measured in duplicate in parallel to each experiment to transform counts per minute into pmol of drug. Drug uptake attributable to PfCRT was determined by subtracting the background uptake from water-injected oocytes from that of PfCRT-expressing oocytes. In all cases, at least three independent experiments were performed on oocytes from different frogs, and for each condition in an experiment, measurements were made from 10 oocytes per treatment.
Supplementary file ppat.1011436.s006.tif: S3 Fig Verapamil inhibits PfCRT-mediated transport of CQ and PPQ. […] Left panels, data is shown as individual biological replicates (coloured symbols) overlaid onto bars representing the Mean ± S.E.M. (error bars). A one-tailed Student’s t-test was performed between untreated (no VP) and treated (+ 100 μM VP) samples, and the obtained p values are shown. Right panels, the uptake in VP-treated samples was divided by the uptake in their corresponding untreated pairs and subtracted from 100% to get the percentage of uptake inhibition mediated by the presence of 100 μM verapamil in the extracellular medium. Error bars are S.E. (TIF) Click here for additional data file.

PfCRT^Dd2 = biological target: T2, PfCRT^Dd2 (Plasmodium falciparum, UniProt Q8IBZ9, A220S/I356T/K76T/M74I/N326S/N75E/Q271E/R371I); test: Competition plot (Vtotal versus proportion of PPQ in CQ/PPQ mixtures), PfCRT^Dd2; assay type: cell-based; set-up: expressed in transfected cells; host or cells: Xenopus laevis oocytes injected with in vitro transcribed RNA (pSP64T); settings: for competition plot result (binding sites): CQ/PPQ mixtures, curve with a maximum
T2 sequence (Q8IBZ9 1-424 M74I/N75E/K76T/A220S/Q271E/N326S/I356T/R371I): T1 sequence (Q8IBZ9 1-424 M74I/N75E/K76T/A220S/Q271E/N326S/M343L/I356T/R371I) with L343M
Experimental: To test this hypothesis, we performed competition plot experiments, in which the enzyme or carrier is exposed to substrate mixtures that give the same transport rate for different substrates. The experiment is performed with substrate A labeled and then repeated with substrate B labeled.
The competition plot tests whether two substrates bind to the same site or distinct sites on an enzyme or transporter. A competitive reaction would yield data points that lie on a horizontal line, whereas allosteric interactions would reveal a curved relationship. […] Vtotal was subsequently analyzed as a function of the proportion of PPQ in the mixture (P). For more details see Materials and Methods. The mean ± SEM of at least 3 independent biological replicates are shown.
The competition plot was performed as described elsewhere. […] These corresponded to values of P equal to 0, 0.25, 0.5, 0.75, 0.9 and 1. A plot of Vtotal as a function of P yielded the competition plots. If both substrates bind to the same site, then a constant Vtotal is expected across all P values (e.g. data lies on a horizontal line). If the substrates bind to different sites, and they inhibit each other’s transport, it is expected that the curve is concave with either a minimum or a maximum.

[1] = CQ/PPQ mixture, P = 0.25, single replicates
[2] = CQ/PPQ mixture, P = 0.5, single replicates
[3] = CQ/PPQ mixture, P = 0.75, single replicates
[4] = CQ/PPQ mixture, P = 0.9, single replicates

SMILES | PfCRTDd2_M343L-mediated CQ transport (PfCRT^Dd2_M343L; 50 µM CQ + 100 µM VP) | PfCRTDd2_M343L-mediated CQ transport (PfCRT^Dd2_M343L; 50 µM CQ) | PfCRTDd2-mediated CQ transport P = 0 (PfCRT^Dd2; CQ/PPQ mixture, P = 0, single replicates) | PfCRTDd2-mediated CQ transport P = 0.25 (PfCRT^Dd2; [1]) | PfCRTDd2-mediated CQ transport P = 0.5 (PfCRT^Dd2; [2]) | PfCRTDd2-mediated CQ transport P = 0.75 (PfCRT^Dd2; [3]) | PfCRTDd2-mediated CQ transport P = 0.9 (PfCRT^Dd2; [4]) | competition plot result (binding sites) (PfCRT^Dd2) | PfCRTDd2_M343L-mediated PPQ transport (PfCRT^Dd2_M343L; 50 µM PPQ + 100 µM VP) | PfCRTDd2-mediated PPQ transport P = 0.25 (PfCRT^Dd2; [1]) | PfCRTDd2-mediated PPQ transport P = 0.5 (PfCRT^Dd2; [2]) | PfCRTDd2-mediated PPQ transport P = 0.75 (PfCRT^Dd2; [3]) | PfCRTDd2-mediated PPQ transport P = 0.9 (PfCRT^Dd2; [4]) | PfCRTDd2-mediated PPQ transport P = 1 (PfCRT^Dd2; CQ/PPQ mixture, P = 1, single replicates)
CCN(CC)CCCC(C)Nc1ccnc2cc(Cl)ccc12 (stereo not drawn) [CQ, chloroquine] | 1.630 pmol oocyte-1 h-1 and 0.990 pmol oocyte-1 h-1 and 2.400 pmol oocyte-1 h-1 | 2.130 pmol oocyte-1 h-1 and 3.200 pmol oocyte-1 h-1 and 2.380 pmol oocyte-1 h-1 and 2.370 pmol oocyte-1 h-1 | 20.79 pmol oocyte-1 h-1 and 22.58 pmol oocyte-1 h-1 and 19.58 pmol oocyte-1 h-1 and 16.43 pmol oocyte-1 h-1 | 18.03 pmol oocyte-1 h-1 and 18.73 pmol oocyte-1 h-1 and 18.01 pmol oocyte-1 h-1 | 16.36 pmol oocyte-1 h-1 and 12.29 pmol oocyte-1 h-1 | 7.91 pmol oocyte-1 h-1 and 7.73 pmol oocyte-1 h-1 and 11.16 pmol oocyte-1 h-1 and 8.67 pmol oocyte-1 h-1 | 4.33 pmol oocyte-1 h-1 and 3.12 pmol oocyte-1 h-1 and 4.83 pmol oocyte-1 h-1 | bind at different sites |  |  |  |  |  | 
Clc1ccc2c(N3CCN(CCCN4CCN(c5ccnc6cc(Cl)ccc56)CC4)CC3)ccnc2c1 [PPQ, piperaquine] |  |  |  |  |  |  |  | bind at different sites | 22.37 pmol oocyte-1 h-1 and 37.53 pmol oocyte-1 h-1 and 41.81 pmol oocyte-1 h-1 and 17.67 pmol oocyte-1 h-1 | 3.23 pmol oocyte-1 h-1 and 2.01 pmol oocyte-1 h-1 and 4.17 pmol oocyte-1 h-1 | 8.67 pmol oocyte-1 h-1 and 8.62 pmol oocyte-1 h-1 and 9.88 pmol oocyte-1 h-1 | 14.14 pmol oocyte-1 h-1 and 12.26 pmol oocyte-1 h-1 and 14.54 pmol oocyte-1 h-1 | 15.27 pmol oocyte-1 h-1 and 15.64 pmol oocyte-1 h-1 and 17.36 pmol oocyte-1 h-1 and 20.19 pmol oocyte-1 h-1 | 17.53 pmol oocyte-1 h-1 and 18.98 pmol oocyte-1 h-1 and 22.10 pmol oocyte-1 h-1
